US20210309961A1, “METHOD OF THREE-DIMENSIONAL MICROORGANISMS BIOFILMS FABRICATION” (VIVAX BIO, LLC, priority 2020, published 2021)

System: E. coli ATCC 43890
Test: Survivability of E. coli ATCC 43890 in presence of gadobutrol (cfu count by plating decimal dilutions)
Format: cell-based, Escherichia coli
Method: A. (1) E. coli culture ATCC 43890 grown on LB broth during the night, (2) bacteria culture grown on LB broth and incubated with 0,2 M of gadobutrol in magnetic bioprinter for 24 hours, and (3) bacteria culture cultivated in paramagnetic substrate containing 0,2 M of gadobutrol in magnetic bioprinter for 24 hours; bacteria were sown in decimal dilution; diagram is showing concentrations calculated in three independent experiments.
The E. coli ATCC 43890 (cultured in different conditions) concentrations were estimated for analysis of survivability of bacteria in presence of gadobutrol. Primary culture has shown concentrations of 2.3×10^9, 2.1×10^9 and 1.9×10^8 cfu/ml for fresh night culture grown in LB broth during the night (1), for culture grown in LB broth during the night and then incubated with 0.2M gadobutrol in the bioprinter for next 24 hours (2), and culture grown under magnetic levitation in the paramagnetic nutrient medium (3) respectively (FIG. 4A). […] Moreover, the results have shown that the bacteria proliferated in the paramagnetic culture medium, that was observed due to the increase in concentration during cultivation: the initial bacteria (diluted in fresh paramagnetic medium) concentration was 2.3×10^7 cfu/ml ( 1/100 from the fresh night culture) and final concentration was 1.9×10^8 cfu/ml.

With `O=C([O-])CN1CCN(CC(=O)[O-])CCN(C(CO)C(O)CO)CCN(CC(=O)[O-])CC1.[Gd+3]` (stereo not drawn) [gadobutrol, [10-[2,3-dihydroxy-1-(hydroxymethyl)propyl]-1,4,7,10-tetraazacyclododecane-1,4,7-triaceto(3-)-N^1,N^4,N^7,N^10,O^1,O^4,O^7]gadolinium] the “survivability of bacteria after incubation” value (0.2M gadobutrol) was “bacteria saved their survivability”, the bacteria concentration (culture grown in LB broth during the night, then incubated with 0.2M gadobutrol in the bioprinter for next 24 hours) was 2.1×10^9 cfu/ml and the bacteria concentration (culture grown under magnetic levitation in paramagnetic nutrient medium (0.2 M gadobutrol) for 24 hours, initial concentration 2.3×10^7 cfu/ml) was 1.9×10^8 cfu/ml.
